Measured values from patent US20190307820A1, “COMPOSITIONS AND METHODS OF USING STAT1/3 INHIBITORS WITH ONCOLYTIC HERPES VIRUS” (priority 2016, published 2019).

Legend:
pSTAT1 (Tyr701) = test: Western blot of STAT 1 / pSTAT1 (Tyr701) in BV2 microglia cells; type: cell-based, mouse
Description: BV2 cells were pre-treated with vehicle or C16 (1 μM) for 2 hours and then incubated with vehicle or oHSV-1 (G207) at an MOI of 1 or oHSV-1 and C16 combination for 24 hours. Total protein was harvested and subjected to western blot assay. β-actin expression was used for loading control (means±SE).
BV2 cells were treated with either vehicle or Lps (1 μg/ml) or Lps (1 μg/ml) with C16 (1 μM) for 24 hours. Total protein was harvested and subjected to western blot assay. β-actin expression was used for loading control (means±SE).
Total protein was harvested with sample buffer (125 mM Tris-HCL, 50% Glycerol, […] and 5% 2-mercaptoethanol) and boiled for 5 minutes. Protein samples were subjected to SDS-PAGE (8% gel), transferred to nitrocellulose membranes and blocked in 5% nonfat milk (Bio Rad) in TBS-Tween 20 (TBS-T) for 1 hour at room temperature. The membranes were then incubated with primary antibody against β-actin at 1:1000 (Cell Signaling, Danvers, Mass.) or anti-STAT1 antibody at 1:1000 (Cell Signaling, Danvers, Mass.) or anti-STAT3 antibody at 1:1000 (Cell Signaling, Danvers, Mass.) or anti-phospho STAT1 antibody (Tyr701) at 1:1000 (Cell Signaling, Danvers, Mass.) or anti-phospho STAT3 antibody (Tyr705) at 1:1500 (Cell Signaling, Danvers, Mass.) or anti-phosphor-eIF2a antibody (ser51) at 1:1000 (Cell Signaling, Danvers, Mass.) or anti-ICP27 antibody at 1:1000 (Abcam, Cambridge, Mass.) or anti-ICP4 antibody at 1:750 (Abcam, Cambridge, Mass.) for overnight at 4° C. The membranes were washed the next day with TBS-T three times and incubated with corresponding secondary antibody at 1:3000 (Perkim Elmer, Boston, Mass.), for 1 hour at room temperature. Membranes were washed with TBS-T three times before visualization using ECL reagent (Perkim Elmer, Boston, Mass.) and VersaDoc imaging system (Bio-Rad). Band density was measured by using ImageJ software (NIH, Bethesda, Md.).

[1] = system: CT26, LL2, U87, B16, 4T1 tumor cells; test: Cell survival (MTT) of tumor cell panel with nifuroxazide and/or virus; type: cell-based; settings: nifuroxazide 0-100 μM
Excerpt: FIGS. 7A-7L show results of treatment of tumor cells with nifuroxazide and oHSV-1. FIG. 7A-7C show cell survival for tumor cells CT26, LL2 and U87 treated with nifuroxazide or HrR3 or KOS. FIG. 7D-7G show cell survival of tumor cells, U87, CT26, 4T1 and LL2, treated first with nifuroxazide and then HrR3 virus. FIG. 7H-7K show combination index (CI) values for tumor cells treated with varying doses of nifuroxazide or the viruses, HrR3 or KOS, or VG12TR, alone or in combination. FIG. 7L is a table presenting the dose reduction index for a combination of nifuroxazide and HrR3 virus.
In this example, the effect of nifuroxazide and oHSV-1 on tumor cells was evaluated. A variety of cancer cell types were treated with nifuroxazide (from 0-100 μM) or HrR3 virus at a MOI from 0 to 12.5 or KOS virus at a MOI from 1 to 12.5. Cell survival was measured.
Tumor cells were treated with nifuroxazide or medium. Following incubation, virus was added and further incubated for 72 (FIG. 7D) or 48 hrs (FIG. 7E-7G). Cytotoxicity was measured by an MTT assay. […]
If FIG. 7H-7K, cells were treated with varying doses of nifuroxazide or the indicated viruses (HrR3, KOS, or VG12TR) alone or in combination for 48 hrs (7J, 7K) or 72 hrs (7H) Cell viability was measured by a MTT assay and combination index (CI) values were calculated using Chour-Talalay analysis. […]

[2] = system: oHSV-1 (HrR3) in U87 tumors; test: oHSV-1 amplification in subcutaneous U87 tumors in vivo (viral DNA qPCR, immunohistochemistry); set-up: species or system mice
Excerpt: FIGS. 6A and 6B show results of in vivo dose dependent HrR3 replication augmentation by nifuroxazide. Subcutaneously U87 tumor bearing mice were intratumorally injected with single dose of HrR3 virus (n=2; […]) or peritoneally injected indicated concentration of nifuroxazide or both combination. Tumors were harvested at day 10 post treatment (FIG. 6A) Total genomic DNA was extracted from the harvested tumors. Viral DNA particles (ICP27) were detected by qPCR and normalized to β-actin. (FIG. 6B) ICP4 and STAT1 expression were determined by immunohistochemistry assay on harvested tumor tissues. Stained sections were then imaged using confocal microscopy.
In this example, oHSV-1 replication augmentation effect was evaluated in vivo. Subcutaneously implanted U87 tumors were treated with either HrR3 alone or in combination with 50 mg/kg nifuroxazide or 100 mg/kg nifuroxazide. Dose dependent oHSV-1 amplification was determined by measuring viral DNA by qPCR in tumor mass. oHSV-1 augmentation was observed 1.6 fold and 2.2 fold by 50 mg/kg nifuroxazide 100 mg/kg nifuroxazide respectively (FIG. 6A).

| Compound | upregulation of pSTAT1 (Tyr701) induced by oHSV-1 (pSTAT1 (Tyr701); C16 1 μM, G207 MOI of 1, 24 hours) | expression level of STAT 1 (pSTAT1 (Tyr701); G207 infected microglial cells) | STAT 1 phosphorylation, LPS treated (pSTAT1 (Tyr701); Lps 1 μg/ml, C16 1 μM, 24 hours) | Cell survival [1] | oHSV-1 augmentation (viral DNA by qPCR in tumor mass) ([2]; 50 mg/kg nifuroxazide with HrR3, day 10) | oHSV-1 augmentation (viral DNA by qPCR in tumor mass) ([2]; 100 mg/kg nifuroxazide with HrR3, day 10) | oHSV-1 amplification by immunohistochemistry assay ([2]; harvested tumor tissues) |
| --- | --- | --- | --- | --- | --- | --- | --- |
| O=C1Nc2ccc3ncsc3c2/C1=C/c1c[nH]cn1 [C16, 6,8-Dihydro-8-(1H-imidazol-5-ylmethylene)-7H-pyrrolo[2,3-g]benzothiazol-7-one] | significantly suppress the upregulation | reduced after C16 treatment | inhibition in STAT 1/3 phosphorylation | – | – | – | – |
| O=C(N/N=C/c1ccc([N+](=O)[O-])o1)c1ccc(O)cc1 [nifuroxazide, Benzoic acid, 4-hydroxy-, [(5-nitro-2-furanyl)metylene]hydrazide] | – | – | – | caused cell mortality in all cell lines at higher doses | 1.6 fold | 2.2 fold | oHSV-1 amplification was also confirmed |
